Read-outs that look alike come from different tables or passages of the source.
Assays:
[1] = tested on: SW620 human colorectal cancer cells; assay: Potentiation of the growth inhibiting activity of MMS, MTT based cell viability assay; settings: read-out: Compounds potentiate the growth inhibiting activity of MMS (IC50)
Method: The synergistic potentiation effect of PARP inhibitors on the growth inhibiting activity of DNA damaging anticancer drugs such as methyl methanesulphonate (MIMS) were measured with SW620 human colorectal cancer cells (Shanghai Cancer Institute) using a MTT based cell viability assay. SW620 cells were grown and maintained in RPMI1640 (Gibco) medium supplemented with 10% FBS (Hyclone). In the first day of experiment, 4000 cells were seeded to each well of a 96-well cell culture plate and incubated at 37° C. and 5% CO2 in a cell culture incubator overnight. In the next day, the cell culture medium was removed. […] The serial dilutions of the reference compounds and the compounds to be tested were made with a 1:3 and 1:10 fashion in DMSO. The 10-fold concentrated solutions of these compounds were made by mixing 10 μl of the serial dilutions in DMSO with 90 μl fresh medium. The final concentration of DMSO in the medium was 1%. The cells were incubated at 37° C. in 5% CO2 cell culture incubator for additional 5 days (120 hours). Afterwards, the 96-well cell culture plate was taken out and 20 μl of MTT solution was added to each well and incubated at 37° C. for 4 h. The medium was removed and 100 μl DMSO was added to each well. The 96-well cell culture plates were shaked adequately for 10 min and readed in a Varioskan Flash plate reader (Thermo Fisher Scientific) at 520 and 690 nm. The data were analyzed by Prism 5 software (GraphPad). The obtained 520 nm absorbance readings substracting corresponding 690 nm reading were analyzed and plotted against the Log scale of the compound concentrations.

[2] = tested on: Human breast cancer cell line T47D; assay: Potentiation of MMS induced apoptosis, cell based caspase-3 activity assay; settings: read-out: Compounds potentiate the apoptosis inducing activity of MMS (EC50);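 note: Caspase-3 activity in cell lysates measured by fluorescence (RFU), EC50 fitted from sigmoidal curve of signal versus log compound concentration in presence of MMS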
Method: Human breast cancer cell line T47D (Nanjing KeyGEN Biotech. CO., LTD.) was used to determine the potentiation effect of PARP-1 inhibitors on the apoptosis inducing activity of DNA damaging anticancer drugs such as MMS. Intracellular caspase-3 activity was used to measure cell apoptosis. Briefly, T47D cells were grown in DMEM/F12 cell culture medium (Hyclone) supplemented with 0.2 U/ml insulin (Genview) and 10% FBS (Hyclone). A day before experiment, 20000 of T47D cells were seeded to each well of a 96-well cell culture plate and maintained at 37° C. and 5% CO2 in a cell culture incubator overnight. On the day of experiment, cell culture medium was removed. […] The serial dilutions of the compounds to be tested and the reference compounds were made in a 1:3 and 1:10 fashion in DMSO. The 10-fold compound solutions were made by mixing 10 μl DMSO serial dilution solutions with 90 μl fresh growth medium. Twenty four hours later, the cells in the 96-well plates were centrifuged at 1000 g for 5 min and the supernatants were removed. 50 μl lysis buffer (10 mM Tris, pH 7.5, 0.1M NaCl, 1 mM EDTA, 0.01% Triton X-100) was added to each well and the plates were shaked horizontally for 30 min at 4° C. After centrifugation at 1000 g at 4° C. for 10 min, 20 μl of supernatant was transferred from each well to a corresponding well in a 384-well black plate. […] The plates were shaked to uniformly mix the wells and incubated at 37° C. for 3 h. […] The caspase-3 activity induced by the compounds was expressed as a relative fluorescence unit (RFU). The obtained fluorescence readings were analyzed using a commercial graphic software (GraphPad Prism 5) and plotted against the Log value of the compound concentrations. The EC50 values were obtained by fitting the data points with the equation of Y (fluorescence reading)=minimal fluorescence reading+(maximal fluorescence reading−minimal fluorescence reading)/(1+10̂(LogEC50−LogC)), where C is the concentration of the testing compound. The EC50 values were obtained by fitting the data points with S-shaped dose response curve equation (GraphPad Software, Inc).

[3] = tested on: BRCA-2 deficient CAPAN-1 human pancreatic cancer cells; assay: Cell growth inhibition of BRCA-2 deficient CAPAN-1 cells, MTT based cell viability assay; settings: Homo sapiens, CAPAN-1, 240 h, read-out: Growth inhibition of CAPAN-1 cells by compounds (IC50)
Method: BRCA-2 deficient CAPAN-1 human pancreatic cancer cells were used to test the growth inhibiting activity of substituted 1-(arylmethyl)-5,6,7,8-tetrahydroquinazoline-2,4(1H,3H)-diones. Briefly, CAPAN-1 cells are grown and maintained in IMEM medium supplemented with 20% FBS. The assay takes 10 days to finish. On day 1, 6000 CAPAN-1 cells are seeded to each well of a 96-well plate. The cells are incubated at 37° C. in a CO2 cell culture incubator overnight. […] Ten-fold compound solutions were made by mixing 10 μl DMSO serial dilution solutions with 90 μl fresh growth medium. The cell culture medium was removed and 180 μl fresh media with FBS and 20 μl of compound solutions were added to each well. The final concentration of DMSO was 1%. Cells were then returned to the CO2 cell culture incubator and incubated at 37° C. for two days (day 3 and day 4). On day 5, the same procedure as what was done on day 2 was repeated. Cell culture medium was removed and fresh medium containing serial dilutions of compounds or reference compounds were added. Cells were returned to the CO2 cell culture incubator and incubated for two more days. On day 8, same procedure was repeated again and fresh medium containing the testing compounds or reference compounds were added and incubated for an additional 2 days. On day 10, 20 μl of MTT reagent (5 mg/ml) was added to each well of the cell culture plate and incubated for 4 h. The cell culture media was removed and 100 μl DMSO was added to each well. The 96-well cell culture plates were shaked horizontally for 10 min and readed in a Varioskan Flash plate reader (Thermo Fisher Scientific) at 520 and 690 nm. The obtained 520 nm absorbance readings substracting corresponding 690 nm reading were analyzed using a commercial graphic software (GraphPad Prism 5) and plotted against the Log scale of the compound concentrations.

[4] = SW620 cells, medium containing 1.5 μg/ml MMS, 5 days (120 hours), MTT
[5] = T47D cells, 100 nM MMS, 24 hours, intracellular caspase-3 activity

Compound	IC50 ([1]; Homo sapiens, SW-620, 120 h) [nM]	EC50 ([2]; Homo sapiens, T47D, 24 h) [nM]	IC50 [3] [nM]	IC50 [1, 4] [nM]	EC50 [2, 5] [nM]
O=C(c1ccsc1)N1CCN(C(=O)c2ccc(F)c(Cn3c4c(c(=O)[nH]c3=O)CCCC4)c2)CC1 [Example 46, 1-(6-Fluoro-3-(4-(thiophene-3-carbonyl)piperazine-1-carbonyl)benzyl)-5,6,7,8-tetrahydroquinazoline-2,4(1H,3H)-dione]	10	13	703	–	–
O=C(c1cc(Cn2c3c(c(=O)[nH]c2=O)CCCC3)ccc1F)N1CCN(c2cnccn2)CC1 [Example 28, 1-(4-Fluoro-3-(4-(pyrazin-2-yl)piperazine-1-carbonyl)benzyl)-5,6,7,8-tetrahydroquinazoline-2,4(1H,3H)-dione]	4.9	14	297	–	–
O=C(c1ccc(Cn2c3c(c(=O)[nH]c2=O)CCCC3)cc1)N1CCN(c2ncccn2)CC1 [Example 55, 1-(4-(4-(Pyrimidin-2-yl)piperazine-1-carbonyl)benzyl)-5,6,7,8-tetrahydroquinazoline-2,4(1H,3H)-dione]	> 10000	> 10000	–	–	–
O=C(c1cc(Cn2c3c(c(=O)[nH]c2=O)CCCC3)ccc1F)N1CCN(c2ccccn2)CC1 [Example 26, 1-(4-Fluoro-3-(4-(pyridin-2-yl)piperazine-1-carbonyl)benzyl)-5,6,7,8-tetrahydroquinazoline-2,4(1H,3H)-dione]	2.3	5.6	93	–	–
CC1CCc2c(c(=O)[nH]c(=O)n2Cc2ccc(F)c(C(=O)N3CCN(c4ncccn4)CC3)c2)C1 (stereo not drawn) [Example 57, 1-(4-Fluoro-3-(4-(pyrimidin-2-yl)piperazine-1-carbonyl)benzyl)-6-methyl-5,6,7,8-tetrahydroquinazoline-2,4(1H,3H)-dione]	221	429	–	–	–
O=C(c1cccc(Cn2c3c(c(=O)[nH]c2=O)CCCC3)c1)N1CCN(C(=O)C2CCCC2)CC1 [Example 9, 1-(3-(4-(Cyclopentylcarbonyl)piperazine-1-carbonyl)benzyl)-5,6,7,8-tetrahydroquinazoline-2,4(1H,3H)-dione]	12	91	107	–	–
O=C(c1ccccc1)N1CCN(C(=O)c2ccc(F)c(Cn3c4c(c(=O)[nH]c3=O)CCCC4)c2)CC1 [Example 48, 1-(6-Fluoro-3-(4-benzoylpiperazine-1-carbonyl)benzyl)-5,6,7,8-tetrahydroquinazoline-2,4(1H,3H)-dione]	13	26	–	–	–
O=C(c1cccc(Cn2c3c(c(=O)[nH]c2=O)CCCC3)c1)N1CCN(c2nccs2)CC1 [Example 8, 1-(3-(4-(Thiazol-2-yl)piperazine-1-carbonyl)benzyl)-5,6,7,8-tetrahydroquinazoline-2,4(1H,3H)-dione]	11	20	–	–	–
O=C(c1cccc(Cn2c3c(c(=O)[nH]c2=O)CCCC3)c1)N1CCN(c2ncccn2)CC1 [Example 5, 1-(3-(4-(Pyrimidin-2-yl)piperazine-1-carbonyl)benzyl)-5,6,7,8-tetrahydroquinazoline-2,4(1H,3H)-dione]	15	3.5	22	–	–
O=C(c1cccc(Cn2c3c(c(=O)[nH]c2=O)CCCC3)c1)N1CCN(C(=O)c2cccs2)CC1 [Example 7, 1-(3-(4-(Thiophene-2-carbonyl)piperazine-1-carbonyl)benzyl)-5,6,7,8-tetrahydroquinazoline-2,4(1H,3H)-dione]	21	62	–	–	–
O=C(c1ccc(F)cc1)N1CCN(C(=O)c2cc(Cn3c4c(c(=O)[nH]c3=O)CCCC4)ccc2F)CC1 [Example 32, 1-(4-Fluoro-3-(4-(4-fluorobenzoyl)piperazine-1-carbonyl)benzyl)-5,6,7,8-tetrahydroquinazoline-2,4(1H,3H)-dione]	6.3	27	–	–	–
O=C(c1cccc(Cn2c3c(c(=O)[nH]c2=O)CCC3)c1)N1CCN(c2ncccn2)CC1 [Example 45]	–	–	–	138	402
CC1CCCc2c1c(=O)[nH]c(=O)n2Cc1ccc(F)c(C(=O)N2CCN(c3ccccn3)CC2)c1 (stereo not drawn) [Example 58, 1-(4-Fluoro-3-(4-(pyridin-2-yl)piperazine-1-carbonyl)benzyl)-5-methyl-5,6,7,8-tetrahydroquinazoline-2,4(1H,3H)-dione]	–	–	–	82	350
COc1ccc(C(=O)N2CCN(C(=O)c3cc(Cn4c5c(c(=O)[nH]c4=O)CCCC5)ccc3F)CC2)cc1 [Example 37, 1-(4-Fluoro-3-(4-(4-methoxybenzoyl)piperazine-1-carbonyl)benzyl)-5,6,7,8-tetrahydroquinazoline-2,4(1H,3H)-dione]	14	48	–	–	–
CC(=O)N1CCN(C(=O)c2cc(Cn3c4c(c(=O)[nH]c3=O)CCCC4)ccc2F)CC1 [Example 34, 1-(4-Fluoro-3-(4-acetylpiperazine-1-carbonyl)benzyl)-5,6,7,8-tetrahydroquinazoline-2,4(1H,3H)-dione]	42	402	–	–	–
O=C(c1ccccc1)N1CCN(C(=O)c2cccc(Cn3c4c(c(=O)[nH]c3=O)CCCC4)c2)CC1 [Example 10, 1-(3-(4-Benzoylpiperazine-1-carbonyl)benzyl)-5,6,7,8-tetrahydroquinazoline-2,4(1H,3H)-dione]	36	325	–	–	–
CCN1CCN(C(=O)c2cc(Cn3c4c(c(=O)[nH]c3=O)CCCC4)ccc2F)CC1 [Example 31, 1-(4-Fluoro-3-(4-ethylpiperazine-1-carbonyl)benzyl)-5,6,7,8-tetrahydroquinazoline-2,4(1H,3H)-dione]	31	295	–	–	–
O=C(c1ccc(F)c(Cn2c3c(c(=O)[nH]c2=O)CCCC3)c1)N1CCN(C(=O)c2ccco2)CC1 [Example 52, 1-(6-Fluoro-3-(4-(furan-2-carbonyl)piperazine-1-carbonyl)benzyl)-5,6,7,8-tetrahydroquinazoline-2,4(1H,3H)-dione]	16	24	–	–	–
O=C(c1cc(Cn2c3c(c(=O)[nH]c2=O)CCCC3)ccc1F)N1CCC(c2ccccc2)CC1 [Example 54, 1-(4-Fluoro-3-(4-phenylpiperidine-1-carbonyl)benzyl)-5,6,7,8-tetrahydroquinazoline-2,4(1H,3H)-dione]	107	532	–	–	–
O=C(c1ccsc1)N1CCN(C(=O)c2cccc(Cn3c4c(c(=O)[nH]c3=O)CCCC4)c2)CC1 [Example 15, 1-(3-(4-(Thiophene-3-carbonyl)piperazine-1-carbonyl)benzyl)-5,6,7,8-tetrahydroquinazoline-2,4(1H,3H)-dione]	31	72	–	–	–
O=C(c1cc(Cn2c3c(c(=O)[nH]c2=O)CCCCC3)ccc1F)N1CCN(c2ncccn2)CC1 [Example 59, 1-(4-Fluoro-3-(4-(pyrimidin-2-yl)piperazine-1-carbonyl)benzyl)-6,7,8,9-tetrahydro-1H-cyclohepta[d]pyrimidine-2,4(3H,5H)-dione]	42	309	–	–	–
O=C(c1cc(Cn2c3c(c(=O)[nH]c2=O)CCCC3)ccc1F)N1CCN(C(=O)C2CC2)CC1 [Example 19, 1-(4-Fluoro-3-(4-(cyclopropylcarbonyl)piperazine-1-carbonyl)benzyl)-5,6,7,8-tetrahydroquinazoline-2,4(1H,3H)-dione]	25	324	–	–	–
O=C(c1cccc(Cn2c3c(c(=O)[nH]c2=O)CCCC3)c1)N1CCN(c2cnccn2)CC1 [Example 16, 1-(3-(4-(Pyrazin-2-yl)piperazine-1-carbonyl)benzyl)-5,6,7,8-tetrahydroquinazoline-2,4(1H,3H)-dione]	13	43	–	–	–
O=C(c1cccc(Cn2c3c(c(=O)[nH]c2=O)CCCC3)c1)N1CCN(C(=O)C2CCC2)CC1 [Example 14, 1-(3-(4-(Cyclobutylcarbonyl)piperazine-1-carbonyl)benzyl)-5,6,7,8-tetrahydroquinazoline-2,4(1H,3H)-dione]	22	35	–	–	–
CCS(=O)(=O)N1CCN(C(=O)c2cc(Cn3c4c(c(=O)[nH]c3=O)CCCC4)ccc2F)CC1 [Example 29, 1-(4-Fluoro-3-(4-ethylsulfonylpiperazine-1-carbonyl)benzyl)-5,6,7,8-tetrahydroquinazoline-2,4(1H,3H)-dione]	18	138	–	–	–
O=C(c1cccc(Cn2c3c(c(=O)[nH]c2=O)CCCC3)c1)N1CCN(C(=O)C2CC2)CC1 [Example 6, 1-(3-(4-(Cyclopropylcarbonyl)piperazine-1-carbonyl)benzyl)-5,6,7,8-tetrahydroquinazoline-2,4(1H,3H)-dione]	120	> 1000	–	–	–
O=C(c1ccccc1Cn1c2c(c(=O)[nH]c1=O)CCCC2)N1CCN(c2ncccn2)CC1 [Example 56, 1-(2-(4-(Pyrimidin-2-yl)piperazine-1-carbonyl)benzyl)-5,6,7,8-tetrahydroquinazoline-2,4(1H,3H)-dione]	> 10000	> 10000	–	–	–
O=C(c1cccc(Cn2c3c(c(=O)[nH]c2=O)CCCC3)c1)N1CCN(C(=O)c2ccco2)CC1 [Example 13, 1-(3-(4-(Furan-2-carbonyl)piperazine-1-carbonyl)benzyl)-5,6,7,8-tetrahydroquinazoline-2,4(1H,3H)-dione]	33	374	–	–	–
O=C(c1cccc(Cn2c3c(c(=O)[nH]c2=O)CCCC3)c1)N1CCN(C(=O)C2CCCCC2)CC1 [Example 12, 1-(3-(4-(Cyclohexylcarbonyl)piperazine-1-carbonyl)benzyl)-5,6,7,8-tetrahydroquinazoline-2,4(1H,3H)-dione]	9.7	62	–	–	–
